# System: Plasmodium berghei
# Experiment: Luciferase/luciferin-expressing antifolate-resistant parasites were used to infect a culture of HepG2 cells that were pre-incubated with compounds. Infected hepatocytes emit light due to the luciferase reaction. Assay results are presented as the percent inhibition of light emission compared to control. […]
# Type: functional
# Conditions: sporozoite; for IC90: read-out: LUCIFERASE INFECTION ASSAY - IC90
# [1] = read-out: LUCIFERASE INFECTION ASSAY - IC50
Compound,IC90 [µM],IC50 [1] [µM],other results
Cc1cc(C)c(NC(=O)CN(C)C2CC(=O)N(C)C2=O)c(C)c1 (stereo unspecified),> 10,–,"IC50 (HEPG2TOX_HILL_SLOPE 0.116, HEPG2TOX_R_SQUARED 0.0867, read-out: LUCIFERASE INFECTION ASSAY - IC50): > 10 µM"
Cc1cc(NC(=O)CSc2ncc(-c3ccc(Cl)cc3)n2-c2ccccc2C)no1,> 10,9.42,–
CNC(=O)C1CN(C(=O)c2oc3ccc(OC)cc3c2C)c2ccccc2O1 (stereo unspecified),> 10,–,"IC50 (HEPG2TOX_HILL_SLOPE 21.4, HEPG2TOX_R_SQUARED 0.941, read-out: LUCIFERASE INFECTION ASSAY - IC50): > 10 µM"
c1cc2c(cc1C1=NNC(=NC3CC3)SC1)CCCC2,0.277,–,"IC50 (FFLUC_HILL_SLOPE 1.51, FFLUC_R_SQUARED 0.952, HEPG2TOX_HILL_SLOPE 2.86, HEPG2TOX_R_SQUARED 0.94, PBLUC_HILL_SLOPE 0.977, PBLUC_R_SQUARED 0.884, read-out: LUCIFERASE INFECTION ASSAY - IC50): 0.0292 µM"
CCOc1ccc(Nc2nc(-c3c(C)nc4cc(C)ccn34)cs2)cc1,6.99,–,–
Cc1csc2sc(COC(=O)Nc3ccccc3)c(C)c12,> 10.4,–,"IC50 (HEPG2TOX_HILL_SLOPE 0.302, HEPG2TOX_R_SQUARED 0.714, PBLUC_HILL_SLOPE 1.42, PBLUC_R_SQUARED 0.482, read-out: LUCIFERASE INFECTION ASSAY - IC50): 8.97 µM"
Nc1ccc(-c2cn3c(-c4cccc(Cl)c4)cnc3cn2)cn1,> 10.3,–,"IC50 (PBLUC_HILL_SLOPE 1.1, PBLUC_R_SQUARED 0.459, read-out: LUCIFERASE INFECTION ASSAY - IC50): 5.57 µM"
Cc1ccc(CNc2ccc3nnc(C(F)(F)F)n3n2)cc1,> 10,–,"IC50 (FFLUC_HILL_SLOPE 15, FFLUC_R_SQUARED 0.243, read-out: LUCIFERASE INFECTION ASSAY - IC50): > 10 µM"
O=C(Nc1cc(Cl)ccc1OC(=O)c1ccc(C(F)(F)F)cc1)c1ccc(C(F)(F)F)cc1,2.9,–,"IC50 (HEPG2TOX_HILL_SLOPE 3.38, HEPG2TOX_R_SQUARED 0.98, PBLUC_HILL_SLOPE 2.51, PBLUC_R_SQUARED 0.591, read-out: LUCIFERASE INFECTION ASSAY - IC50): 1.21 µM"
COc1cc(-c2nc3ccc(NC(=O)Nc4ccc(C)cc4)cn3n2)cc(OC)c1OC,2.87,–,"IC50 (HEPG2TOX_HILL_SLOPE 3.16, HEPG2TOX_R_SQUARED 0.688, PBLUC_HILL_SLOPE 3.03, PBLUC_R_SQUARED 0.446, read-out: LUCIFERASE INFECTION ASSAY - IC50): 1.39 µM"
COc1ccc(CN2C(=O)c3ccccc3C(C=NNC(=O)Cc3cccn3C)C2=O)cc1 (stereo unspecified),4.28,–,"IC50 (FFLUC_HILL_SLOPE 212, FFLUC_R_SQUARED 0.138, HEPG2TOX_HILL_SLOPE 1.34, HEPG2TOX_R_SQUARED 0.84, PBLUC_HILL_SLOPE 13.5, PBLUC_R_SQUARED 0.236, read-out: LUCIFERASE INFECTION ASSAY - IC50): 3.64 µM"
CSc1[nH]nc(-c2cc(C(C)(C)C)oc2C)c1C#N,> 12,–,"IC50 (PBLUC_HILL_SLOPE 2.91, PBLUC_R_SQUARED 0.01, read-out: LUCIFERASE INFECTION ASSAY - IC50): 8.62 µM"
c1cncc(-c2nc(NCc3ccnc(N4CCCC4)c3)c3ccccc3n2)c1,> 10,–,"IC50 (HEPG2TOX_HILL_SLOPE 5.98, HEPG2TOX_R_SQUARED 0.222, PBLUC_HILL_SLOPE 14.9, PBLUC_R_SQUARED 0.594, read-out: LUCIFERASE INFECTION ASSAY - IC50): 9.31 µM"
CC1CCCCN1CCCNC(=S)Nc1cc(C(F)(F)F)cc(C(F)(F)F)c1 (stereo unspecified),> 7.72,–,"IC50 (PBLUC_HILL_SLOPE 2.02, PBLUC_R_SQUARED 0.36, read-out: LUCIFERASE INFECTION ASSAY - IC50): 3.73 µM"
Cc1nn(-c2ccccc2)c(Cl)c1CSc1nnc(/C=C/c2ccc(F)cc2)[nH]1,> 10,> 10,–
Cc1ccc(-c2nc(SCc3nc(=O)c4ccc(C(=O)O)cc4[nH]3)[nH]c2-c2ccc(C)cc2)cc1,> 10,> 10,–
Brc1ccc(-c2cc(-c3ccccc3)cc(-c3ccccc3)n2)cc1,> 8.54,> 8.54,–
O/N=C1/c2ccccc2-c2nnc(-c3cccc(OC(F)(F)F)c3)cc21,1.49,–,"IC50 (PBLUC_HILL_SLOPE 1.48, PBLUC_R_SQUARED 0.765, read-out: LUCIFERASE INFECTION ASSAY - IC50): 0.337 µM"
CCOc1ccc(C2(O)C(C)N3C(=[N+]2c2ccc(OC)cc2)CCc2ccccc23)cc1 (stereo unspecified),> 10,> 10,–
c1ccc(-c2csc3ncnc(Sc4nnc(C5COc6ccccc6O5)n4-c4ccccc4)c23)cc1 (stereo unspecified),> 10,> 10,–
COc1ccc(-c2ccc3c(c2)COC2(CCN(C(=O)c4ccc(F)cc4F)CC2)O3)cc1OC,> 6.85,> 6.85,–
